The structures appear in SMILES notation.

Experimental findings from publication PMC7917842, “Chlortetracycline, a Novel Arf Inhibitor That Decreases the Arf6-Dependent Invasive Properties of Breast Cancer Cells” (Molecules, 2021) are described below.

One assay concerns the target T1, Arf6 (Homo sapiens, UniProt P62330).
T1 construct: full-length Arf6, C-terminal hexa-his tag (non myristoylated); also myristoylated Arf6; with EFA6A (exchange factor in the IC50 assay)
Briefly: mant-GTP loading (FRET) on purified Arf6 with EFA6A and azolectin liposomes; also […]GTPγS binding and tryptophan fluorescence. It counts as biochemical.

The next assay has as its target T2, Arf1 (Homo sapiens, UniProt P84077).
T2 construct: recombinant myristoylated Arf1 (myrArf1)
Description: spontaneous mant-GTP loading on purified myrArf1 with azolectin, […] CTC; also ARNO-catalysed exchange. It counts as biochemical.

T1 sequence (Q8NDX1 whole entry): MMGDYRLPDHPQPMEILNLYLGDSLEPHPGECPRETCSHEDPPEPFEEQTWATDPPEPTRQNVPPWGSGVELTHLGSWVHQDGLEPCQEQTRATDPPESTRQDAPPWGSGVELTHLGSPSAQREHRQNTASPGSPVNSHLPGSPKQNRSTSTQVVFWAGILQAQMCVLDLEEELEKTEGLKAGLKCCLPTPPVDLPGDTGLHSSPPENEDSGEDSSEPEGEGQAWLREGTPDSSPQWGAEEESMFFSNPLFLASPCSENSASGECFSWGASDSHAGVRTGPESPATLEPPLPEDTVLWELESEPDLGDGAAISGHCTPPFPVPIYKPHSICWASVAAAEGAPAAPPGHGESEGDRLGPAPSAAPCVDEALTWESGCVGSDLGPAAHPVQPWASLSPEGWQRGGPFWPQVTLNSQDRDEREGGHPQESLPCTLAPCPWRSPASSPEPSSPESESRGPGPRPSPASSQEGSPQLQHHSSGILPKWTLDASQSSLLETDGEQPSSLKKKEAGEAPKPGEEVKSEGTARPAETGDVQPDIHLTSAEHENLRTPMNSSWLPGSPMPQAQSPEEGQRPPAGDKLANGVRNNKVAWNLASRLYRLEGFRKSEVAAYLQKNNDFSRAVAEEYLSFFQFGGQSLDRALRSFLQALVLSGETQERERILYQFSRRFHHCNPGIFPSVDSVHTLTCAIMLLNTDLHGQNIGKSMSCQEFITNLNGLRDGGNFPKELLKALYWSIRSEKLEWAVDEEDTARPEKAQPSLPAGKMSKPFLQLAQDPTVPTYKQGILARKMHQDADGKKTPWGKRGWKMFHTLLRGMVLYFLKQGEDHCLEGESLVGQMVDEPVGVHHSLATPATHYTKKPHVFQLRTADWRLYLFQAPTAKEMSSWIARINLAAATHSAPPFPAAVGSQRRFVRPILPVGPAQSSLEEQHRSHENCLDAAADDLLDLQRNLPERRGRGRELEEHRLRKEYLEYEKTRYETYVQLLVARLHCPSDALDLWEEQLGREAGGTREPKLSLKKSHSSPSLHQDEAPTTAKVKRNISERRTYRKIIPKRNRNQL
T1 sequence (P62330 2-175): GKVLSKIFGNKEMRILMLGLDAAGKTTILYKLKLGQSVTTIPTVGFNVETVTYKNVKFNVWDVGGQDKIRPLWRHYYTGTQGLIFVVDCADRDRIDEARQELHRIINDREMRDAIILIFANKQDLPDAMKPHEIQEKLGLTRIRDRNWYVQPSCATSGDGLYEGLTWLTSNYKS
T2 sequence (P84077 2-181): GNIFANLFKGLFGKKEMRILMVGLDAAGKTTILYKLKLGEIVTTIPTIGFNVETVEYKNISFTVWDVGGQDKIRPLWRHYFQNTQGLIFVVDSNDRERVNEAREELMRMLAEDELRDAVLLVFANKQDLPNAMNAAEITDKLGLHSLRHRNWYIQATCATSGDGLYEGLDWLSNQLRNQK

The IC50 is the concentration that inhibits the measured activity by half. Lower therefore signals inhibition by little substance. As to `CN(C)[C@@H]1C(O)=C(C(N)=O)C(=O)[C@@]2(O)C(O)=C3C(=O)c4c(O)ccc(Cl)c4[C@@](C)(O)[C@H]3C[C@@H]12` [CTC, chlortetracycline], the IC50 at Arf6 came out at 75 µM. Moreover, the “spontaneous mant-GTP loading on purified myrArf1 with azolectin, 100 μM CTC; als” value at Arf1 is “CTC was able to strongly inhibit the spontaneous activation on the myristoylated forms of Arf6 (myrArf6) and Arf1 (myrArf1)”.
